Patent publication US20090163450A1, “COMBINATIONS COMPRISING A PROSTAGLANDIN AND USES THEREOF” (priority 2007, published 2009)
Entries after “also recorded” stand apart in the source; their conditions may differ. Like-named read-outs stand apart in the source and are kept apart here.

Assays:
[1] = test system: human B52 NSCLC cells xenografted to nude mice; conditions: for effect on tumor growth (tumor area): 1st experiment
Method: (§1) B-52 NSCL tumor pieces obtained from in vivo passage, were implanted s.c. in the inguinal region of female nude mice. Treatment was started when the tumors were approximately 25 mm^2 in size. Tumor area was determined by caliper measurements twice weekly.
B-52 tumor pieces obtained from in vivo passage, were implanted s.c. in the inguinal region of female nude mice. Treatment was started when the tumors were approximately 25 mM2 in size. Tumor area was determined by caliper measurements twice weekly.
(§2) Tumor area was determined by caliper measurements.

[2] = test system: human B-52 NSCL cancer model, xenografted in nude mice; test: 2nd experiment: B-52 NSCL cancer xenograft in nude mice, epothilone with Iloprost and/or O-acetyl salicylic acid; conditions: Iloprost 0.2 mg/kg i.v. days 22-26, O-acetyl salicylic acid 60 mg/kg p.o. days 19-29; for effect on tumor growth (tumor area): 2nd experiment (FIG. 1), epothilone 8 mg/kg i.v. once day 24
Method: as §1
The 2nd Experiment was made to evaluate in a human B-52 NSCL cancer model, xenografted in nude mice the effect of: • Iloprost and O-acetyl salicyclic acid alone, • the combination of Iloprost and epothilone, • the combination of O-acetyl salicyclic acid and epothilone, • the combination of Iloprost and O-acetyl salicyclic acid as well as • the combination of Iloprost, O-acetyl salicyclic acid and epothilone.
The study was designed to determine the response of a lung cancer model to a cytotoxic treatment regime with the epothilone derivative in combination with Iloprost, O-acetyl salicylic acid or the combination thereof.
The tumor-inhibiting effect of, O-acetyl salicylic acid (ASS) and iloprost was investigated in the human B-52 NSCL cancer model, xenografted in nude mice.
B-52 tumor pieces obtained from in vivo passage, were implanted s.c. in the inguinal region of female nude mice. Treatment was started when the tumors were approximately 25 mm^2 in size. Tumor area was determined by caliper measurements twice weekly.
as §2

Structure (SMILES) | effect on tumor growth (tumor area) ([1]; Iloprost 0.2 mg/kg i.v. 1x/day days 27-31, epothilone 7 or 10 mg/kg i.v. 1x day 29) | effect on tumor growth (tumor area) [2] | effect on bodyweight ([2]; 2nd experiment) | effect on tumor growth (tumor area) ([1]; epothilone at the highest dose of 10 mg/kg i.v. 1x day 29) | toxicity ([1]; mouse, in vivo, iv, 10 mg/kg)
CC#CCC(C)[C@H](O)/C=C/[C@@H]1[C@H]2C/C(=C/CCCC(=O)O)C[C@H]2C[C@H]1O (stereo partly drawn) [Iloprost, ((E)-5-{(3aS,4R,5R,6aS)-5-Hydroxy-4-[(E)-(3S,4RS)-3-hydroxy)-4-methyl-1-octen-6-ynyl]perhydropentalen-2-ylidene}valeric acid] | no significant effect on tumor growth | no effects | no effect |  | 
C=CC[C@H]1C(=O)C(C)(C)[C@@H](O)CC(=O)O[C@H](c2ccc3sc(C)nc3c2)C[C@@H]2O[C@]2(C)CCC[C@H](C)[C@@H]1O [epothilone, (1S,3S,7S,10R,11S,12S,16R)-7,11-dihydroxy-3-(2-methyl-benzothiazol-5-yl)-10-(prop-2-en-1-yl)-8,8,12,16-tetramethyl-4,17-dioxabicyclo[14.1.0]heptadecane-5,9-dione] |  | slightly reduced tumor growth; also recorded: effective in growth inhibiting |  | reduced tumor growth | proved to be toxic
